The values below come from paper PMC11374718, “Unlocking opioid neuropeptide dynamics with genetically encoded biosensors” (Nature Neuroscience, 2024).

Molecules are shown by their SMILES.

In assay [1] the test system is κLight1.3a. The assay is described as follows: in vivo BLA terminal ChRimson stimulation-evoked κLight1.3a activity in NAcSh after drug pretreatment. Also on record: species or system mouse. Conditions: aticaprant 3 mg per kg i.p. pretreatment; normalized to vehicle; 0–20 s; n = 4.
The test system of assay [2] is κLight1.3a. The assay is described as follows: in vivo fiber photometry of κLight1.3a in NAcSh, agonist/antagonist drug injection. Also on record: species or system mouse. The conditions noted are these: κOR-Cre mice NAcSh; aticaprant 3 mg per kg + U50,488 10 mg per kg i.p.; 0–50 min; n = 6. The procedure: To detect dynorphin signaling at κOR-expressing neurons, we injected κOR-Cre mice with AAV5-CAG-DIO-κLight1.3a and implanted optical fibers in the NAcSh. A subset of mice was also injected with the red-shifted opsin ChRimson (AAV5-DIO-EF1a-ChRimson-tdTomato) in the BLA (Fig. 5a–c and Extended Data Fig. 5a); ChRimson-lacking mice served as a negative control to determine if optical stimulation produced artifactual dynamics in κLight1.3a fluorescence. We first examined the response of κLight1.3a to the agonist U50,488 in these mice (Fig. 5d).
Mice were pretreated with either vehicle (17:1:1:1 ratio of saline:dimethylsulfoxide:corn oil:ethanol) or aticaprant (Eli Lilly) at 3 mg per kg body weight […] i.p. for 30 min. […]
Custom MATLAB scripts were developed for analyzing fiber photometry data in the context of mouse behavior. […] After baseline correction, the photometry trace was z-scored relative to the mean and standard deviation of the session. The post-processed fiber photometry signal was analyzed in the context of animal behavior during Pavlovian conditioning and operant task performance. […] Peak, mean and minimum fluorescence was determined during predetermined time windows for the injection period (0–5 min), reward period (5–20 s), release period (0–20 s) or artifact period (0–20 s) subtracted from peak, mean or minimum fluorescence values in a baseline window (−5 to 0 s). […]

As to `Cc1cc(C)cc([C@@H]2CCCN2Cc2ccc(Oc3ccc(C(N)=O)cc3F)cc2)c1` [aticaprant], the “Normalized peak fluorescence of κLight1.3a, ChRimson stimulation-evoked trials” value in the assay on κLight1.3a [1] amounted to 0.63 ± 0.14. The “Normalized peak fluorescence of κLight1.3a during injection period” value with κLight1.3a [2] is given as 0.29 ± 0.07.
